Data published in article PMC10308680 (Journal of Biomedical Science, 2023).
Values joined by “and” are separate entries in the source; they are usually repeats but may differ in a detail not shown here. Identical values can stand only once.

Tests used:
[1] = test system: CD28/B7-2 (cell-surface B7-2); assay type: cell-based, human
[2] = test system: B7-2/CD28; assay type: cell-based, human

ASMDYPVL [p2TAsc] was tested, and the “inhibition of binding of soluble CD28 to cell-surface B7-2” value [1] was “abrogated the ability of p2TA to inhibit binding of CD28 to cell-surface B7-2”, the “Per cent doubly labeled cells (B7-2/CD28)” value [2] was 8.4% and 9.0% and 8.6% and the “attenuation of intercellular B7-2/CD28 engagement (in words)” value [2] was “fails to attenuate intercellular B7-2/CD28 engagement”.
